Test results taken from article PMC4618636 (Pharmacology Research & Perspectives, 2015).
Values joined by “and” are separate entries in the source; they are usually repeats but may differ in a detail not shown here. Equal entries are not always repeated. Where two headings read alike, the source gives them in different places.

How the values were obtained:
CYP2B6 = conditions: for CYP2B6 Indmax: mean from two experiments; for CYP2B6 % PB: relative to positive control phenobarbital, equation 2; for CYP2B6 induction: negative controls, any concentration tested (quinidine 0.1–250 μmol/L, flumazenil 0.05–50 μmol/L), data not shown
CYP3A4 [1] = conditions: for CYP3A4 RIS: mean of two experiments; for CYP3A4 % Rif: relative to positive control rifampicin, equation 2; for CYP3A4 Ind50: column headed Ind50 in Table 5; for CYP3A4 induction: negative controls, any concentration tested (quinidine 0.1–250 μmol/L, flumazenil 0.05–50 μmol/L), data not shown
CYP3A4 [2] = conditions: in vivo induction value used for the RIS calibration; cited from earlier work
[3] = upcyte Donor 10-03, mean from two experiments
[4] = upcyte Donor 10-03, values of two experiments
[5] = upcyte Donor 151-03, mean from two experiments
[6] = upcyte Donor 151-03, values of two experiments
[7] = upcyte Donor 422A-03, mean from two experiments
[8] = upcyte Donor 422A-03, values of two experiments
[9] = upcyte Donor 653-03, mean from two experiments
[10] = upcyte Donor 653-03, values of two experiments

Row | Structure (SMILES) | CYP2B6 Indmax (CYP2B6; upcyte Donor 10-03) | CYP2B6 % PB (CYP2B6; upcyte Donor 10-03) | CYP2B6 Indmax (CYP2B6; upcyte Donor 151-03) | CYP2B6 % PB (CYP2B6; upcyte Donor 151-03) | CYP2B6 Indmax (CYP2B6; upcyte Donor 422A-03) | CYP2B6 % PB (CYP2B6; upcyte Donor 422A-03) | CYP2B6 Indmax (CYP2B6; upcyte Donor 653-03) | CYP2B6 % PB (CYP2B6; upcyte Donor 653-03) | CYP3A4 Indmax (CYP3A4 [1]; [3]) | CYP3A4 RIS (CYP3A4 [1]; upcyte Donor 10-03) | CYP3A4 % Rif (CYP3A4 [1]; upcyte Donor 10-03) | CYP3A4 Indmax (CYP3A4 [1]; [5]) | CYP3A4 RIS (CYP3A4 [1]; upcyte Donor 151-03) | CYP3A4 % Rif (CYP3A4 [1]; upcyte Donor 151-03) | CYP3A4 Indmax (CYP3A4 [1]; [6]) | CYP3A4 Indmax (CYP3A4 [1]; [7]) | CYP3A4 RIS (CYP3A4 [1]; upcyte Donor 422A-03) | CYP3A4 % Rif (CYP3A4 [1]; upcyte Donor 422A-03) | CYP3A4 Indmax (CYP3A4 [1]; [8]) | CYP3A4 Ind50 (CYP3A4 [1]; upcyte Donor 653-03) | further results
1 | NC(=O)N1c2ccccc2C=Cc2ccccc21 [Carbamazepine, carbamazepine] | 2.0 fold | 33% | 2.3 fold | 68% | 4.3 fold | 52% | 1.4 fold | 17% | 4.8 fold | 2.675 | 13% | 3.8 fold | 3.071 | 45% | 4.2 fold and 3.4 fold | 4.0 fold | 1.940 | 28% | 4.0 fold and 4.1 fold | 52 | CYP3A4 Indmax (CYP3A4 [1]; [4]): 5.5 fold and 4.1 fold; CYP3A4 Indmax (CYP3A4 [1]; [9]): 5.7 fold; CYP3A4 RIS (CYP3A4 [1]; upcyte Donor 653-03): 4.138; CYP3A4 Indmax (CYP3A4 [1]; [10]): 6.2 fold and 5.2 fold; % Decrease in midazolam AUC (CYP3A4 [2]): 95%
2 | C[C@@H]1C[C@H]2[C@@H]3CCC4=CC(=O)C=C[C@]4(C)[C@@]3(F)[C@@H](O)C[C@]2(C)[C@@]1(O)C(=O)CO [Dexamethasone, dexamethasone] | No induction | No induction | No induction | No induction | No induction | No induction | No induction | No induction |  |  |  |  |  |  |  |  |  |  |  |  | 
3 | CCOC(=O)c1ncn2c1CN(C)C(=O)c1cc(F)ccc1-2 [Flumazenil, flumazenil] | No induction | No induction | No induction | No induction | No induction | No induction | No induction | No induction | No induction | No induction | No induction | No induction | No induction | No induction | No induction | No induction | No induction | No induction | No induction | No induction | CYP2B6 induction (CYP2B6): did not induce; CYP3A4 induction (CYP3A4 [1]): did not induce; CYP3A4 Indmax (CYP3A4 [1]; [4]): No induction; CYP3A4 Indmax (CYP3A4 [1]; [9]): No induction; CYP3A4 RIS (CYP3A4 [1]; upcyte Donor 653-03): No induction; CYP3A4 Indmax (CYP3A4 [1]; [10]): No induction; % Decrease in midazolam AUC (CYP3A4 [2]): 0%
4 | CCC1(c2ccccc2)C(=O)NC(=O)NC1=O [Phenobarbital, phenobarbital] | 3.9 fold | 100% | 2.9 fold | 100% | 7.3 fold | 100% | 3.1 fold | 100% | 23.3 fold | 0.685 | 74% | 5.2 fold | 2.211 | 68% | 5.5 fold and 5.0 fold | 11.3 fold | 1.727 | 95% | 10.7 fold and 11.8 fold | 120 | CYP3A4 Indmax (CYP3A4 [1]; [4]): 23.8 fold and 22.9 fold; CYP3A4 Indmax (CYP3A4 [1]; [9]): 11.8 fold; CYP3A4 RIS (CYP3A4 [1]; upcyte Donor 653-03): 2.198; CYP3A4 Indmax (CYP3A4 [1]; [10]): 13.0 fold and 10.5 fold; % Decrease in midazolam AUC (CYP3A4 [2]): 70%
5 | O=C1NC(=O)C(c2ccccc2)(c2ccccc2)N1 [Phenytoin, phenytoin] | 3.6 fold | 88% | 2.7 fold | 89% | 4.0 fold | 48% | 2.8 fold | 85% | 14.6 fold | 1.970 | 45% | 4.7 fold | 3.908 | 60% | 5.7 fold and 3.8 fold | 15.8 fold | 0.464 | 137% | 14.8 fold and 16.9 fold | 59 | CYP3A4 induction, % of rifampicin maximal induction (CYP3A4 [1]; upcyte Donor 653-03): 120%; CYP3A4 Indmax (CYP3A4 [1]; [9]): 6.3 fold; CYP3A4 RIS (CYP3A4 [1]; upcyte Donor 653-03): 4.341; CYP3A4 Indmax (CYP3A4 [1]; [10]): 7.4 fold and 5.2 fold; % Decrease in midazolam AUC (CYP3A4 [2]): 94%
6 | CCc1ccc(CCOc2ccc(CC3SC(=O)NC3=O)cc2)nc1 (stereo not shown) [Pioglitazone, pioglitazone] | 2.6 fold | 55% | 1.9 fold | 49% | 3.6 fold | 42% | 2.1 fold | 54% | 4.3 fold | 0.0079 | 11% | 4.0 fold | 0.0040 | 48% | 4.0, 4.0 fold | 2.6 fold | 0.0040 | 14% | 2.3 fold and 2.8 fold | 91 | CYP3A4 Indmax (CYP3A4 [1]; [4]): 4.4 fold and 4.2 fold; CYP3A4 Indmax (CYP3A4 [1]; [9]): 9.2 fold; CYP3A4 RIS (CYP3A4 [1]; upcyte Donor 653-03): 0.0066; % Decrease in midazolam AUC (CYP3A4 [2]): 26%
7 | C=C[C@H]1C[N@@]2CC[C@H]1C[C@@H]2[C@@H](O)c1ccnc2ccc(OC)cc12 [Quinidine, quinidine] | No induction | No induction | No induction | No induction | No induction | No induction | No induction | No induction | No induction | No induction | No induction | No induction | No induction | No induction | No induction | No induction | No induction | No induction | No induction | No induction | CYP2B6 induction (CYP2B6): did not induce; CYP3A4 induction (CYP3A4 [1]): did not induce; CYP3A4 Indmax (CYP3A4 [1]; [4]): No induction; CYP3A4 Indmax (CYP3A4 [1]; [9]): No induction; CYP3A4 RIS (CYP3A4 [1]; upcyte Donor 653-03): No induction; CYP3A4 Indmax (CYP3A4 [1]; [10]): No induction; % Decrease in midazolam AUC (CYP3A4 [2]): 0%
8 | CO[C@H]1/C=C/O[C@@]2(C)Oc3c(C)c(O)c4c(O)c(c(/C=N/N5CCN(C)CC5)c(O)c4c3C2=O)NC(=O)/C(C)=C\C=C\[C@H](C)[C@H](O)[C@@H](C)[C@@H](O)[C@@H](C)[C@H](OC(C)=O)[C@@H]1C [Rifampicin, rifampicin] | 2.0 fold | 34% | 1.3 fold | 14% | 7.8 fold | 108% | 1.6 fold | 29% |  |  |  |  |  |  |  |  |  |  |  |  | 
